Reference: ChEMBL document CHEMBL2074083, “Functional characterization of SLCO1B1 (OATP-C) variants, SLCO1B1*5, SLCO1B1*15 and SLCO1B1*15+C1007G, by using transient expression systems of HeLa and HEK293 cells” (Pharmacogenet Genomics, 2005)
Values belong to the molecule of their own block, whether it stands above or below them.

What was measured:
Format in all cases: functional, cell-based
[1] = molecular target: T1, Solute carrier organic anion transporter family member 1B1 (Homo sapiens, UniProt Q9Y6L6); test: (§1) TP_TRANSPORTER: uptake in OATP1B1-expressing HEK293 cells; conditions: hek293
T1 sequence (Q9Y6L6 whole entry): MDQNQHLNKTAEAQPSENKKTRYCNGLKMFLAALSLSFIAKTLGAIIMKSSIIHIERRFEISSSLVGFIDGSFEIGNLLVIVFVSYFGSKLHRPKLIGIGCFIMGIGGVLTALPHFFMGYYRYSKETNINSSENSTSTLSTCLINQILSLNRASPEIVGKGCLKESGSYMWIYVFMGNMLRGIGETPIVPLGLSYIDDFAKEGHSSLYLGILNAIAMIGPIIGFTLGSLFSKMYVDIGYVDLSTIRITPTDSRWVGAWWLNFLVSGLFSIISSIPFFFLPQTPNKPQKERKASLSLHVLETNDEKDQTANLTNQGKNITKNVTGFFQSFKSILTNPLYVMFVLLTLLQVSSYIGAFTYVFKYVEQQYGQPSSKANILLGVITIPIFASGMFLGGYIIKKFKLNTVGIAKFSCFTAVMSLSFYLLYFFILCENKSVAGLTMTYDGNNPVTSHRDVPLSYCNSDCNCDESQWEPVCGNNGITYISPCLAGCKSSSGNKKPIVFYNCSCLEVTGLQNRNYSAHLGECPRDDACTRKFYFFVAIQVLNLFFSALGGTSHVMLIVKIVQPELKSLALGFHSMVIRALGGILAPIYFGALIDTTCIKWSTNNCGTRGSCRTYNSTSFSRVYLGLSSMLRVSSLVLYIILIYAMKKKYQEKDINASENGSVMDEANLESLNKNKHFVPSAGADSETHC

OATP1B1 = molecular target: T2, OATP1B1 (Homo sapiens, UniProt Q9Y6L6); test: as §1; conditions: HEK293 cells that express OATP1B1
T2 sequence (Q9Y6L6 whole entry): T1 sequence (Q9Y6L6 whole entry)

[2] = substrate: CC[C@H](C)C(=O)O[C@H]1C[C@H](O)C=C2C=C[C@H](C)[C@H](CC[C@@H](O)C[C@@H](O)CC(=O)O)[C@H]21; test: as §1

Activity [1]: substrate [(+)]
Molecule: COCc1c(C(C)C)nc(C(C)C)c(/C=C/[C@@H](O)C[C@@H](O)CC(=O)O)c1-c1ccc(F)cc1 [CERIVASTATIN]

Km (OATP1B1): 12.4 µM
Molecule: CC(C)c1c(C(=O)Nc2ccccc2)c(-c2ccccc2)c(-c2ccc(F)cc2)n1CC[C@@H](O)C[C@@H](O)CC(=O)O [ATORVASTATIN]

B1: Solute carrier organic anion transporter family member 1B1 (Homo sapiens) (protein)
chain: T1 sequence (Q9Y6L6 whole entry)
Km [2]: 85.7 µM
